Tests used:
[1] = tested on: IL-6 levels in human whole blood stimulated with a TLR2 agonist; experiment: IRAK4 Whole Blood Assay (lipoteichoic acid/TLR2-stimulated IL-6); assay type: cell-based; details: lipoteichoic acid 10 μg/mL, IL-6 readout
How it was run: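 IL-6 was quantified by cytometric bead assay in supernatants of human blood (ACD-A) stimulated for 5 h with lipoteichoic acid at 10 μg/mL final. Compound exposure preceded stimulation for 60 min at 37 °C, 5% CO2.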

[2] = Caco Permeability Assay; assay type: in vitro ADME; details: human, Caco-2, Caco-2 cells, 3 μM compound
Description: Thirteen to 27 days prior to assay, Caco-2 cells were seeded onto collagen-coated polycarbonate filter membranes in 24-well transwell plates at a density of 1.45×10^5 cells/cm^2, approximately 4.8×10^4 cells per well. The cells were grown in a culture medium consisting of DMEM supplemented with 10% fetal bovine serum, 10 mM HEPES, 1% nonessential amino acids, 2 mM L-glutamine, 100 U/mL penicillin-G, and 100 μg/mL streptomycin. The culture medium was replaced every 3 days and the cells were maintained at 37° C. in a 95% relative humidity and 5% CO2 atmosphere. The cells were evaluated for tight junction formation just prior to assay. The test compound was solubilized to 10 mM in 100% DMSO and diluted to 3 μM in assay buffer. Permeability studies were initiated by adding 200 μL assay buffer plus/minus compound to the apical transwell compartment and 600 μL assay buffer plus/minus compound to the basolateral compartment of the 24-well transwell low-binding cluster plate. For apical-to-basolateral (A to B) permeability (absorptive direction), buffer containing compound was placed in the apical compartment (donor wells), while buffer alone was placed in the corresponding basolateral compartments (receiver wells). For basolateral-to-apical (B to A) permeability (secretive direction), buffer containing compound was placed in the basolateral compartment (donor wells), while buffer alone was placed in the corresponding apical compartments (receiver wells). Transwells were then incubated for 2 hours at 37° C. in a 95% relative humidity and 5% CO2 atmosphere with gentle agitation. Following incubation, 100 μL was removed from each apical and basolateral compartment and transferred to 96-well low binding plates that had been previously loaded with 100 µL/well of acetonitrile containing 250 nM propranolol, 250 nM diclofenac, and 500 nM tolbutamide as internal standards. The samples were subsequently analyzed by LC-MS/MS to determine concentrations of compound.

[3] = target: IRAK4 (Homo sapiens (Human), UniProt Q9NWZ3); experiment: IRAK4 Inhibition Assay; assay type: biochemical; details: ATP 500 μM; IRAK4 0.6 nM
How it was run: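 Readout: electrophoretic (LabChip) separation of fluorescent peptide substrate from phosphorylated product after EDTA quench. Reactions ran 60 min at room temperature with 0.6 nM IRAK4, 1.5 μM peptide and 500 μM ATP; inhibition referenced to no-enzyme (100%) and vehicle (0%) controls.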

Sequence of IRAK4 (Q9NWZ3 whole entry): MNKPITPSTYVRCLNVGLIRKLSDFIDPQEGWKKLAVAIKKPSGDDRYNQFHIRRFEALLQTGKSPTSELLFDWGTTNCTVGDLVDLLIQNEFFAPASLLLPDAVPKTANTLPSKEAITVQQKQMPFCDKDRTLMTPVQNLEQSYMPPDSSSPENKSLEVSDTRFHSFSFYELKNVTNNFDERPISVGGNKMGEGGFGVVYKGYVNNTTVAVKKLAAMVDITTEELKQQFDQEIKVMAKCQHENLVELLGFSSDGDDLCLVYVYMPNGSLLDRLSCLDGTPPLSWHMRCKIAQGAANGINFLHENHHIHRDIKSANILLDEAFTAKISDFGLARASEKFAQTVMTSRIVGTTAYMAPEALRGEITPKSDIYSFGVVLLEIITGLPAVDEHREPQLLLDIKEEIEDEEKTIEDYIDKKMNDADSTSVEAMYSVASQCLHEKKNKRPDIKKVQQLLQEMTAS

Row | EC50 ([1]; Homo sapiens) [nM] | Papp at 2 h, 3 µM [2] [×10⁻⁶ cm/s] | IC50 [3] [nM] | EC50 [1] [nM] | SMILES
1 | 140 | 3.7 | 1 |  | CCn1cc(Nc2cc(-c3cnn4cc(Cl)cnc34)ncc2C(=O)NC[C@@H](F)C(C)(C)O)cn1 [Example 232, (R)-6-(6-chloropyrazolo[1,5-a]pyrimidin-3-yl)-4-((1-ethyl-1H-pyrazol-4-yl)amino)-N-(2-fluoro-3-hydroxy-3-methylbutyl)nicotinamide]
2 | 690 | 3 | 2 |  | CC(C)(O)[C@H]1CC[C@H](Nc2cc(-c3cnn4cc(Cl)cnc34)ncc2C(=O)NC[C@@H](F)C(C)(C)O)C1 [Example 50, 6-(6-chloropyrazolo[1,5-a]pyrimidin-3-yl)-N—((R)-2-fluoro-3-hydroxy-3-methylbutyl)-4-(((1S,3S)-3-(2-hydroxypropan-2-yl)cyclopentyl)amino)nicotinamide]
3 | 350 | 8.9 | 7 |  | Cc1cnn2c(-c3cc(NC(C)C)c(C(=O)NC[C@@H](F)C(C)(C)O)cn3)cnc2c1 [Example 148, (R)—N-(2-fluoro-3-hydroxy-3-methylbutyl)-4-(isopropylamino)-6-(7-methylimidazo[1,2-b]pyridazin-3-yl)nicotinamide]
4 | 150 | < 1.5 | 2 |  | CC(C)(O)[C@H](F)CNC(=O)c1cnc(-c2cnc3cc(C#N)cnn23)cc1NC1CCOCC1 [Example 146, (R)-6-(7-cyanoimidazo[1,2-b]pyridazin-3-yl)-N-(2-fluoro-3-hydroxy-3-methylbutyl)-4-((tetrahydro-2H-pyran-4-yl)amino)nicotinamide]
5 | 1030 | 7 | 4 |  | CC(CCF)Nc1cc(-c2cnn3cc(C#N)cnc23)ncc1C(=O)NC[C@@H](F)C(C)(C)O (stereo partly drawn) [Example 106, 6-(6-cyanopyrazolo[1,5-a]pyrimidin-3-yl)-N—((R)-2-fluoro-3-hydroxy-3-methylbutyl)-4-((4-fluorobutan-2-yl)amino)nicotinamide]
6 |  | 4.9 | 3 | 620 | CC(C)(O)[C@H](F)CNC(=O)c1cnc(-c2cnn3cc(Cl)cnc23)cc1NC1COCC1(F)F (single isomer, unassigned) [Example 19]
7 | 420 | < 1.5 | 2 |  | CC(C)(O)[C@H](F)CNC(=O)c1cnc(-c2cnn3cc(Cl)cnc23)cc1NC1CCN(S(C)(=O)=O)CC1 [Example 68, (R)-6-(6-chloropyrazolo[1,5-a]pyrimidin-3-yl)-N-(2-fluoro-3-hydroxy-3-methylbutyl)-4-((1-(methylsulfonyl)piperidin-4-yl)amino) nicotinamide]
8 | 130 | 4.7 | 1 |  | CC(C)(O)[C@H](F)CNC(=O)c1cnc(-c2cnn3cc(Cl)cnc23)cc1Nc1cnn(C2CC2)c1 [Example 246, (R)-6-(6-chloropyrazolo[1,5-a]pyrimidin-3-yl)-4-((1-cyclopropyl-1H-pyrazol-4-yl)amino)-N-(2-fluoro-3-hydroxy-3-methylbutyl)nicotinamide]
9 | 140 | < 1.5 | 7 |  | C[C@@H](CO)Nc1cc(-c2cnn3cc(Cl)cnc23)ncc1C(=O)NC[C@@H](F)C(C)(C)O [Example 31, 6-(6-chloropyrazolo[1,5-a]pyrimidin-3-yl)-N—((R)-2-fluoro-3-hydroxy-3-methylbutyl)-4-(((S)-1-hydroxypropan-2-yl)amino)nicotinamide]
10 | 400 | < 1.5 | 2 |  | CC(C)(O)[C@H](F)CNC(=O)c1cnc(-c2cnn3cc(C#N)cnc23)cc1Nc1cnn(CC2CC2)c1 [Example 249, (R)-6-(6-cyanopyrazolo[1,5-a]pyrimidin-3-yl)-4-((1-(cyclopropylmethyl)-1H-pyrazol-4-yl)amino)-N-(2-fluoro-3-hydroxy-3-methylbutyl)nicotinamide]
11 | 240 | 12.3 | 2 |  | CC(C)Nc1cc(-c2cnc3cc(C#N)cnn23)ncc1C(=O)NC[C@@H](F)C(C)(C)O [Example 145, (R)-6-(7-cyanoimidazo[1,2-b]pyridazin-3-yl)-N-(2-fluoro-3-hydroxy-3-methylbutyl)-4-(isopropylamino)nicotinamide]
12 | 100 | 19 | 3 |  | CC(C)Nc1cc(-c2cnc3cc(Cl)cnn23)ncc1C(=O)NC[C@@H](F)C(C)(C)O [Example 142, (R)-6-(7-chloroimidazo[1,2-b]pyridazin-3-yl)-N-(2-fluoro-3-hydroxy-3-methylbutyl)-4-(isopropylamino)nicotinamide]
13 |  | 12.6 | 10 | 880 | CC(C)Nc1cc(-c2cnc3cccnn23)ncc1C(=O)NC[C@@H](F)C(C)(C)O [Example 177, (R)—N-(2-fluoro-3-hydroxy-3-methylbutyl)-6-(imidazo[1,2-b]pyridazin-3-yl)-4-(isopropylamino)nicotinamide]
14 | 80 | < 1.5 | 3 |  | CC(C)(O)[C@H](F)CNC(=O)c1cnc(-c2cnc3cc(C#N)cnn23)cc1Nc1cnn(CC(F)F)c1 [Example 260, (R)-6-(7-cyanoimidazo[1,2-b]pyridazin-3-yl)-4-((1-(2,2-difluoroethyl)-1H-pyrazol-4-yl)amino)-N-(2-fluoro-3-hydroxy-3-methylbutyl) nicotinamide]
15 | 350 | < 1.5 | 14 |  | CC(C)(O)CNc1cc(-c2cnn3cc(Cl)cnc23)ncc1C(=O)NC[C@@H](F)C(C)(C)O [Example 58, (R)-6-(6-chloropyrazolo[1,5-a]pyrimidin-3-yl)-N-(2-fluoro-3-hydroxy-3-methylbutyl)-4-((2-hydroxy-2-methylpropyl)amino)nicotinamide]
16 | 410 | 1.8 | 4 |  | CC(F)(F)Cn1ccc(Nc2cc(-c3cnn4cc(C#N)cnc34)ncc2C(=O)NC[C@@H](F)C(C)(C)O)n1 [Example 245, (R)-6-(6-cyanopyrazolo[1,5-a]pyrimidin-3-yl)-4-((1-(2,2-difluoropropyl)-1H-pyrazol-3-yl)amino)-N-(2-fluoro-3-hydroxy-3-methylbutyl)nicotinamide]
17 | 760 | 19.1 | 6 |  | CC(C)(O)[C@H](F)CNC(=O)c1cnc(-c2cnn3cc(Cl)cnc23)cc1NCC(F)F [Example 163, (R)-6-(6-chloropyrazolo[1,5-a]pyrimidin-3-yl)-4-((2,2-difluoroethyl)amino)-N-(2-fluoro-3-hydroxy-3-methylbutyl) nicotinamide]
18 | 11100 | 16.2 | 2 |  | CC(C)(O)[C@H](F)CNC(=O)c1cnc(-c2cnn3cc(Cl)cnc23)cc1NC1CC1 [Example 22, (R)-6-(6-chloropyrazolo[1,5-a]pyrimidin-3-yl)-4-(cyclopropylamino)-N-(2-fluoro-3-hydroxy-3-methylbutyl)nicotinamide]
19 | 300 | 2.6 | 1 |  | CC(C)(O)[C@H](F)CNC(=O)c1cnc(-c2cnn3cc(Cl)cnc23)cc1Nc1cnn(C2COC2)c1 [Example 48, (R)-6-(6-chloropyrazolo[1,5-a]pyrimidin-3-yl)-N-(2-fluoro-3-hydroxy-3-methylbutyl)-4-((1-(oxetan-3-yl)-1H-pyrazol-4-yl)amino)nicotinamide]

Source: US10618903B2, “Heteroaryl substituted aminopyridine compounds” (BRISTOL-MYERS SQUIBB COMPANY, priority 2015, dated 2020)
